Assay results from paper PMC5064907, “Tissue expression and antibacterial activity of host defense peptides in chicken” (BMC Veterinary Research, 2016).
Where two headings read alike, the source gives them in different places. Residues, ends and D or L forms follow the SMILES beside them. No end group written: not given here.

Key:
[1] = tested on: Escherichia coli ATCC 25922; format: cell-based; details: for Antibacterial activity over the tested concentrations: 0.5, 1, 2.5 and 5 μM peptide, Fig. 2b; for Antibacterial activity over the tested concentrations / Killing activity among tested HDPs at less than 5 μM: 2 h; for Antibacterial activity over the tested concentrations / Antibacterial (lytic) activity against E.coli at 5 μM: 37 °C; for Relative antibacterial effect among all tested chicken HDPs / Killing activity among tested HDPs at less than 5 μM: E. coli; for Relative antibacterial effect among all tested chicken HDPs: under test conditions (0.5-5 μM, 2 h); for Bacteria killed at 0.5 μM: ATCC 25922, 2 h; for Antibacterial (lytic) activity against E.coli at 5 μM: 5 μM peptide, 6 × 10^6 CFU/ml E. coli ATCC 25922, 2 h, luminescence, Fig. 2a; for Killing activity among tested HDPs at less than 5 μM: less than 5 μM peptide; for Efficiency in reducing E. coli cell viability and damaging cell membranes (comparison among the CATHs): discussion summary of the viability and membrane damage data
Protocol: Gram-negative bacteria, Escherichia coli ATCC 25922, were purchased from Korean Collection for Type Culture and tested against each peptide. Cell viability analysis was carried out as previously reported. Briefly, 6 × 10^6 colony–forming units (CFU)/ml bacteria suspensions (90 μl) were placed into 96 well plates, followed by the addition of 10 μl of serial diluted peptide (final 0, 0.5, 1, 2.5, 5 μM) in triplicate. After 2 h incubation at 37 °C, equal volume of BacTiter-Glo™ Reagent (Promega) was added, and incubated for 5 min after which luminescence was measured with GloMax-Multi Detection System (Promega).
E. coli (6 × 10^6) were incubated with indicated amounts of peptide for 2 h and cell viability was compared to untreated cells. […] Each bar represents the mean ± S.D. value of at least three independent experiments. Non-treated cell considered as 100 % cell viability and peptides treated cell viability was compared and calculated in percentile. *** indicate p ≤ 0.001, ** indicate p ≤ 0.01 and * indicate p ≤ 0.05

E.coli = details: previous report; cited from earlier work
Excerpt: Even though many tested chicken HDPs show varying efficiencies against pathogens, the majority kill bacteria at low concentration. […] These four peptides have very low net charge from 0.1 to 1.8. AvBD4 has 24 % hydrophobicity with 5.8 net charge and can kill bacteria very well compared to AvBD5, -8 and -13 that have the same hydrophobicity but lower cationicity of 0.1 to […].

E. coli = experiment: Detection of damaged E. coli membranes, LIVE/DEAD BacLight staining, confocal laser scanning microscopy; format: cell-based, Escherichia coli; details: 5 μM peptide, 6.5 × 10^6 CFU E. coli, 10 mM phosphate buffer pH 7.0, 37 °C, 2 h
Protocol: Fig. 3 Escherichia coli viability and membrane damage following treatment with cathelicidins. Membrane damage in E. coli treated with each synthetic cathelicidin peptide (5 μM) was detected with a LIVE/DEAD BacLight Bacterial Viability Kit. Green fluorescence indicates live bacteria with intact membranes; red fluorescence indicates dead bacteria with damaged membranes.

Compound	Antibacterial activity over the tested concentrations [1]	Antibacterial (lytic) activity against E.coli at 5 μM [1]	Killing activity among tested HDPs at less than 5 μM [1]	also measured
CSCC[C@H](NC(=O)[C@H](Cc1c[nH]cn1)NC(=O)[C@H](Cc1ccc(O)cc1)NC(=O)[C@@H](N)CCCNC(=N)N)C(=O)N[C@@H](CCC(N)=O)C(=O)N[C@@H](CS)C(=O)NCC(=O)N[C@@H](Cc1ccc(O)cc1)C(=O)N[C@@H](CCCNC(=N)N)C(=O)NCC(=O)N[C@H](C(=O)N[C@@H](Cc1ccccc1)C(=O)N[C@@H](CS)C(=O)N[C@H](C(=O)N1CCC[C@H]1C(=O)NCC(=O)N[C@@H](CCCCN)C(=O)N[C@@H](CS)C(=O)N1CCC[C@H]1C(=O)N[C@@H](Cc1ccc(O)cc1)C(=O)NCC(=O)N[C@@H](CC(N)=O)C(=O)N[C@@H](C)C(=O)N[C@@H](Cc1ccc(O)cc1)C(=O)N[C@@H](CC(C)C)C(=O)NCC(=O)N[C@@H](CC(C)C)C(=O)N[C@@H](CS)C(=O)N[C@@H](CCCNC(=N)N)C(=O)N1CCC[C@H]1C(=O)N[C@@H](CCCCN)C(=O)N[C@@H](Cc1ccc(O)cc1)C(=O)N[C@@H](CO)C(=O)N[C@@H](CS)C(=O)N[C@@H](CS)C(=O)N[C@@H](CCCNC(=N)N)C(=O)N[C@@H](Cc1c[nH]c2ccccc12)C(=O)O)[C@@H](C)O)[C@@H](C)O [AvBD4] (H-RYHMQCGYRGTFCTPGKCPYGNAYLGLCRPKYSCCRW-OH; N-terminus and C-terminus assumed)	–	–	–	Antibacterial activity over the tested concentrations ([1]; listed as BD4): strongest activity among the three; Relative antibacterial effect among all tested chicken HDPs [1]: strongest antibacterial effect among all tested chicken HDPs; Relative antibacterial effect among all tested chicken HDPs ([1]; listed as β-defensin4): strongest antibacterial activity among all tested chicken HDPs
CC[C@H](C)[C@H](NC(=O)CNC(=O)[C@H](CC(N)=O)NC(=O)[C@H](CC(N)=O)NC(=O)[C@H](CS)NC(=O)[C@@H](NC(=O)CNC(=O)[C@@H](NC(=O)[C@H](Cc1c[nH]c2ccccc12)NC(=O)[C@H](Cc1ccc(O)cc1)NC(=O)[C@H](Cc1ccc(O)cc1)NC(=O)[C@@H]1CCCN1C(=O)[C@H](CCCNC(=N)N)NC(=O)[C@H](CCCNC(=N)N)NC(=O)[C@H](CS)NC(=O)[C@@H](NC(=O)CNC(=O)[C@@H]1CCCN1C(=O)[C@H](Cc1ccccc1)NC(=O)[C@H](CS)NC(=O)[C@H](CC(C)C)NC(=O)CNC(=O)[C@H](CC(N)=O)NC(=O)[C@H](CCCNC(=N)N)NC(=O)[C@H](CC(C)C)NC(=O)[C@H](CCCNC(=N)N)NC(=O)[C@H](CS)NC(=O)[C@@H](NC(=O)[C@H](CC(=O)O)NC(=O)[C@@H](NC(=O)[C@@H]1CCCN1C(=O)[C@@H](N)CCCNC(=N)N)[C@@H](C)CC)[C@@H](C)O)[C@@H](C)CC)[C@@H](C)CC)[C@@H](C)O)C(=O)NCC(=O)N[C@@H](CO)C(=O)N[C@@H](CS)C(=O)N[C@@H](CS)C(=O)N[C@@H](C)C(=O)N[C@@H](CCCNC(=N)N)C(=O)O [AvBD7] (H-RPIDTCRLRNGLCFPGICRRPYYWIGTCNNGIGSCCAR-OH; N-terminus and C-terminus assumed)	very strong antibacterial activity at all concentration	–	–	–
CC[C@H](C)[C@H](NC(=O)[C@H](C)NC(=O)[C@H](CC(=O)O)NC(=O)[C@H](CCC(=O)O)NC(=O)[C@H](CC(=O)O)NC(=O)[C@@H]1CCCN1)C(=O)N[C@@H](CC(N)=O)C(=O)N[C@@H](CC(N)=O)C(=O)N[C@@H](C)C(=O)N[C@@H](CC(C)C)C(=O)N[C@@H](CC(N)=O)C(=O)N[C@@H](CCCCN)C(=O)N[C@H](C(=O)N[C@@H](CS)C(=O)N[C@@H](CO)C(=O)N[C@H](C(=O)NCC(=O)N[C@@H](CCCNC(=N)N)C(=O)N[C@@H](CCCNC(=N)N)C(=O)N[C@@H](CCC(N)=O)C(=O)N[C@@H](CCCNC(=N)N)C(=O)N[C@@H](CO)C(=O)N[C@H](C(=O)N[C@@H](CS)C(=O)N[C@@H](CCCCN)C(=O)N[C@@H](CCC(N)=O)C(=O)N[C@@H](CC(C)C)C(=O)N[C@@H](CC(C)C)C(=O)N[C@@H](CCCCN)C(=O)N[C@@H](CCCCN)C(=O)O)[C@@H](C)CC)[C@@H](C)O)C(C)C [cNK3] (H-PDEDAINNALNKVCSTGRRQRSICKQLLKK-OH; N-terminus and C-terminus assumed)	very strong antibacterial activity at all concentration	–	–	Bacteria killed at 0.5 μM [1]: 50%
GLPQDCERRGGFCSHKSCPPGIGRIGLCSKEDFCCRS [AvBD5, synthetic linear peptide corresponding to chicken avian β-defensin 5]	–	very weak lytic activity	minimal killing activity	–
NNEAQCEQAGGICSKDHCFHLHTRAFGHCQRGVPCCRTVYD [AvBD8, synthetic linear peptide corresponding to chicken avian β-defensin 8]	–	very weak lytic activity	minimal killing activity	Lethal dose (LD)50 against E.coli (E.coli): 27 µM
PDSCNHDRGLCRVGNCNPGEYLAKYCFEPVILLCCKPLSPTPTKT [AvBD12, synthetic linear peptide corresponding to chicken avian β-defensin 12]	–	very weak lytic activity	minimal killing activity	–
PDTVACRTQGNFCRAGACPPTFTISGQCHGGLLNCCAKIPAQ [AvBD10, synthetic linear peptide corresponding to chicken avian β-defensin 10]	–	very weak lytic activity	minimal killing activity	–
PIRNWWIRIWEWLNGIRKRLRQRSPFYVRGHLNVTSTPQP [CATB1]	–	–	–	Efficiency in reducing E. coli cell viability and damaging cell membranes (comparison among the CATHs) [1]: weak antibacterial activity compared to others; E. coli membrane damage (red fluorescence, LIVE/DEAD BacLight) (E. coli): greater with CATH2 or CATH3 than with CATH1 or CATHB1
PVLVQRGRFGRFLRKIRRFRPKVTITIQGSARFG [CATH2]	very strong antibacterial activity at all concentration	–	–	Bacteria killed at 0.5 μM [1]: 50%; Efficiency in reducing E. coli cell viability and damaging cell membranes (comparison among the CATHs) [1]: highest efficiency; E. coli membrane damage (red fluorescence, LIVE/DEAD BacLight) (E. coli): greater with CATH2 or CATH3 than with CATH1 or CATHB1
PVRVKRFWPLVPVAINTVAAGINLYKAIRRK [CATH3]	very strong antibacterial activity at all concentration	–	–	Bacteria killed at 0.5 μM [1]: 50%; Efficiency in reducing E. coli cell viability and damaging cell membranes (comparison among the CATHs) [1]: highest efficiency; E. coli membrane damage (red fluorescence, LIVE/DEAD BacLight) (E. coli): greater with CATH2 or CATH3 than with CATH1 or CATHB1
TATQCRIRGGFCRVGSCRFPHIAIGKCATFISCCGR [AvBD3, synthetic linear peptide corresponding to chicken avian β-defensin 3]	kill effectively over all tested concentrations	–	–	–
